This test deals with T1, 11β-HSD1 (Homo sapiens, UniProt P28845).
T1 construct: detecting cortisol generated from cortisterone by human liver microsomes; from tissue; host or cells: human liver microsomes
Kind of test: In vitro inhibition of 11β-HSD1, HTRF detection of cortisol generated by human liver microsomes. The format is biochemical. The conditions noted are these: compound concentration 1 μM, 100% indicates no inhibition, zero or below zero indicates complete inhibition, cortisone 80 nM, 1 hour at 37° C., read-out: % CTL at 1 μM. As to the method:
Briefly, compounds were incubated for 1 hour at 37° C. in Tris buffer (20 mM tris, 5 mM EDTA, pH 6.0) containing NADPH (200 μM) and cortisone (80 nM). Cortisol generated in the reaction is then detected with a competitive immunoassay, involving two HTRF conjugates: cortisol linked to XL665 and anti-cortisol antibody labeled with Europium cryptate. The incubation period for detection reaction was typically 2 hours. The amount of cortisol is determined by reading the time-resolved fluorescence of the wells (Ex 320/75 nm; Em 615/8.5 nm and 665/7.5 nm). The ratio of the two emission signals is then calculated (Em665*10000/Em615). […] Each assay also contained a calibration curve with cortisol to transform the fluorescent data into cortisol concentrations. Percent inhibition of each compound was determined relative to the carbenoxolone signal and IC50 curves were generated.
The % CTL values of some example compounds at a concentration of 1 μM are provided in the following Table 2 wherein 100% indicates no inhibition and a value of zero or below zero indicates complete inhibition. The measurement of % CTL is described hereinbefore.

Structures are written as SMILES.

T1 sequence (P28845 whole entry): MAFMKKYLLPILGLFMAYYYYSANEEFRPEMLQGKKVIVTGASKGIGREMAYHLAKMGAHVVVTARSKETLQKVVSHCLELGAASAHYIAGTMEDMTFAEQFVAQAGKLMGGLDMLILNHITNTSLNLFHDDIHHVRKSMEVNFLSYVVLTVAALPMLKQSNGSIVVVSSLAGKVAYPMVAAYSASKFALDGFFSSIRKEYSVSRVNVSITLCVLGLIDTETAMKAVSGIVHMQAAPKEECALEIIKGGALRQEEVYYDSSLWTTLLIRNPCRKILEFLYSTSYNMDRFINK

`CC1(C)[C@H]2Cc3c(O)cccc3[C@]1(C)CCN2C(=O)N1CCCCC1` [Example 1, [(2R,6S)-10-Hydroxy-6,11,11-trimethyl-1,2,5,6-tetrahydro-4H-2,6-methano-benzo[d]azocin-3-yl]-piperidin-1-yl-methanone]: the remaining activity at 1 µM was -46%.
Take `CC1(C)[C@H]2Cc3c(O)cccc3[C@]1(C)CCN2C(=O)N1CCCC1` [Example 2]: the remaining activity at 1 µM is 18%.
Consider `CC1(C)[C@H]2Cc3c(O)cccc3[C@]1(C)CCN2C(=O)N1CCOCC1` [Example 3], for which the remaining activity at 1 µM amounted to 84%.
In the case of `CC1(C)[C@H]2Cc3c(O)cccc3[C@]1(C)CCN2C(=O)N1CCc2ccsc2C1` [Example 7, (4,7-Dihydro-5H-thieno[2,3-c]pyridin-6-yl)-[(2R,6S)-10-hydroxy-6,11,11-trimethyl-1,2,5,6-tetrahydro-4H-2,6-methano-benzo[d]azocin-3-yl]-methanone] it was -32%; in that of `CC1(C)[C@H]2Cc3c(O)cccc3[C@]1(C)CCN2C(=O)N1CCc2sccc2C1` [Example 8], -27%.
As for `CC1CCN(C(=O)N2CC[C@@]3(C)c4cccc(O)c4C[C@@H]2C3(C)C)CC1` [Example 9], the figure is -14%; as for `CC1(C)[C@H]2Cc3c(O)cccc3[C@]1(C)CCN2C(=O)N1Cc2ccccc2C1` [Example 10], 53%; as for `CC1(C)[C@H]2Cc3c(O)cccc3[C@]1(C)CCN2C(=O)N1CCc2ccccc2C1` [Example 11], 18%.
In the case of `COC1CCN(C(=O)N2CC[C@@]3(C)c4cccc(O)c4C[C@@H]2C3(C)C)CC1` [Example 12] it was -39%; in that of `CC1(C)[C@H]2Cc3c(O)cccc3[C@]1(C)CCN2C(=O)N1CCC(O)CC1` [Example 13], -53%; in that of `CC1(C)[C@H]2Cc3c(O)cccc3[C@]1(C)CCN2C(=O)N1C2CCC1CC(O)C2` (stereo partly drawn) [Example 14], -46%.
As for `CC1(C)[C@H]2Cc3c(O)cccc3[C@]1(C)CCN2C(=O)N1CCc2nc[nH]c2C1` [Example 15], the remaining activity at 1 µM was found to be 14%.
Take `CC1(C)[C@H]2Cc3c(O)cccc3[C@]1(C)CCN2C(=O)N1CCCc2ccccc21` [Example 16]: the remaining activity at 1 µM was -41%.
As for `CC1(C)[C@H]2Cc3c(O)cccc3[C@]1(C)CCN2C(=O)N1[C@@H]2CC[C@H]1C[C@@H](c1ccc(F)cc1)C2` [Example 17], the figure is -43%; as for `CC1(C)[C@H]2Cc3c(O)cccc3[C@]1(C)CCN2C(=O)N1CCc2ccccc21` [Example 18], -8%.
As for `CC1(C)[C@H]2Cc3ccccc3[C@]1(C)CCN2C(=O)N1CCCCC1` [Example 19], the figure is -47%; as for `C[C@@H]1[C@H]2Cc3ccc(O)cc3[C@]1(C)CCN2C(=O)N1CCCCC1` [Example 20], -39%.
In the case of `C[C@@H]1[C@H]2Cc3ccc(C#N)cc3[C@]1(C)CCN2C(=O)N1CCCCC1` [Example 21] it was -28%.
Consider `CC1(C)[C@H]2Cc3c(O)cccc3[C@]1(C)CCN2C(=O)N1CCC(CO)C1` (stereo partly drawn) [Example 22], for which the remaining activity at 1 µM was -4%.
With `CC1(C)[C@H]2Cc3c(O)cccc3[C@]1(C)CCN2C(=O)N1CCCC(O)C1` (stereo partly drawn) [Example 23], the remaining activity at 1 µM is -9%.
As for `CC1(C)[C@H]2Cc3c(O)cccc3[C@]1(C)CCN2C(=O)N1CC(O)C1` [Example 24], the figure is 70%.
As for `CC1(C)[C@H]2Cc3c(O)cccc3[C@]1(C)CCN2C(=O)N1CCC(CO)CC1` [Example 25], the figure is -43%; as for `CC1(C)[C@H]2Cc3c(O)cccc3[C@]1(C)CCN2C(=O)N1CCCC(O)CC1` (stereo partly drawn) [Example 26], -41%.
As for `CC1(O)CCN(C(=O)N2CC[C@@]3(C)c4cccc(O)c4C[C@@H]2C3(C)C)CC1` [Example 27], the figure is -41%; as for `CC1(C)[C@H]2Cc3c(O)cccc3[C@]1(C)CCN2C(=O)N1CCCC1CO` (stereo partly drawn) [Example 28], 36%.
`CC1(C)[C@H]2Cc3c(O)cccc3[C@]1(C)CCN2C(=O)N1CCC(O)C1` (stereo partly drawn) [Example 29]: the remaining activity at 1 µM came out at 30%.
As for `CC1(C)[C@H]2Cc3c(O)cccc3[C@]1(C)CCN2C(=O)N1CCCC(CO)C1` (stereo partly drawn) [Example 30], the figure is -54%.
In the case of `COc1cccc2c1C[C@H]1N(C(=O)N3CCCCC3)CC[C@]2(C)C1(C)C` [Example 31, [(2R,6S)-10-Methoxy-6,11,11-trimethyl-1,2,5,6-tetrahydro-4H-2,6-methano-benzo[d]azocin-3-yl]-piperidin-1-yl-methanone], the remaining activity at 1 µM was -6%.
In the case of `CC1(C)[C@H]2Cc3c(OCc4ccccc4)cccc3[C@]1(C)CCN2C(=O)N1CCCCC1` [Example 32] it was 82%; in that of `CC1(C)[C@H]2Cc3c(OCC#N)cccc3[C@]1(C)CCN2C(=O)N1CCCCC1` [Example 33], 23%.
As for `CC1(C)[C@H]2Cc3c(ccc(C#N)c3O)[C@]1(C)CCN2C(=O)N1CCCCC1` [Example 35, (2R,6S)-10-Hydroxy-6,11,11-trimethyl-3-(piperidine-1-carbonyl)-1,2,3,4,5,6-hexahydro-2,6-methano-benzo[d]azocine-9-carbonitrile], the figure is -30%; as for `CC1(C)[C@H]2Cc3cc(C#N)ccc3[C@]1(C)CCN2C(=O)N1CCCCC1` [Example 36, (2R,6S)-6,11,11-Trimethyl-3-(piperidine-1-carbonyl)-1,2,3,4,5,6-hexahydro-2,6-methano-benzo[d]azocine-9-carbonitrile], -31%; as for `CC1(C)[C@H]2Cc3c(O)cccc3[C@]1(C)CCN2C(=O)N1CCC(O)(CO)CC1` [Example 37], -7%.
In the case of `CC1(C)[C@H]2Cc3c(O)cccc3[C@]1(C)CCN2C(=O)N1C2CCCC1CC(O)C2` (stereo partly drawn) [Example 40] it was -17%; in that of `CC1(C)[C@H]2Cc3c(O)cccc3[C@]1(C)CCN2C(=O)N1CCCC(C(N)=O)C1` (stereo partly drawn) [Example 41], -56%; in that of `CC1(C)[C@H]2Cc3c(O)cccc3[C@]1(C)CCN2C(=O)N1CCCC(C(=O)Nc2ccccc2)C1` (stereo partly drawn) [Example 42], 32%.
In the case of `CC1(C)[C@H]2Cc3c(O)cccc3[C@]1(C)CCN2C(=O)N1CCCC2(CCCNC2=O)C1` (stereo partly drawn) [Example 43], the remaining activity at 1 µM was -45%.
As for `CC1(C)[C@H]2Cc3c(O)cccc3[C@]1(C)CCN2C(=O)N1CCc2cc(O)ccc2C1` [Example 44], the figure is -4%; as for `CC1(C)[C@H]2Cc3c(O)cccc3[C@]1(C)CCN2C(=O)N1CCc2cccc(O)c2C1` [Example 46, (8-Hydroxy-3,4-dihydro-1H-isoquinolin-2-yl)-[(2R,6S)-10-hydroxy-6,11,11-trimethyl-1,2,5,6-tetrahydro-4H-2,6-methano-benzo[d]azocin-3-yl]-methanone], -10%.
As for `CC1(C)[C@H]2Cc3c(O)cccc3[C@]1(C)CCN2C(=O)N1CCn2cnnc2C1` [Example 47], the figure is 94%; as for `Cc1ccc2c(c1)CCCN2C(=O)N1CC[C@@]2(C)c3cccc(O)c3C[C@@H]1C2(C)C` [Example 48], -18%.
As to `CC1(C)[C@H]2Cc3c(O)cccc3[C@]1(C)CCN2C(=O)N1CCCc2cc(NC(=O)C(F)(F)F)ccc21` [Example 49], the remaining activity at 1 µM turned out to be 23%.

(Values after patent US20110028445A1, “Urea derivatives of benzomorphanes and related scaffolds, medicaments containing such compounds and their use” (BOEHRINGER INGELHEIM INTERNATIONAL GMBH, priority 2008, published 2011).)
